Values joined by “and” are separate entries in the source; they are usually repeats but may differ in a detail not shown here. Identical values can stand only once. “Also recorded” adds a separate entry of the source. Like-named read-outs stand apart in the source and are kept apart here.
Tests used:
[1] = test system: Cutaneous Metastases (cancer lesions); experiment: Phase I/II trials, topical A-007 0.25% gel on cutaneous metastases; assay type: in vivo, human
[2] = test system: T-lymphocytes (CD4+, CD3+, CD8+, CD45+) and CD11c+ dendritic cells in skin; experiment: Histochemical assays of biopsies of human skin topically treated with A-007; assay type: in vivo
[3] = test system: naive human lymphocytes (obtained from peripheral blood); experiment: Aggregation of naive lymphocytes around an A-007 crystal in tissue culture; assay type: cell-based; details: 0.5 mg crystals in RPMI, one hour
Description: The ability of an agent to induce aggregation of naïve lymphocytes in culture around a test agent is another factor to be considered in determining whether the agent is a resonance modulator suitable for use in the methods disclosed herein. The ability to induce aggregation within one hour is a particularly strong indication that the compound is suitable for further investigation. “Aggregation” refers to a substantial increase in the number of lymphocytes, such as an increase visible by microscopy, as in FIG. 5.

lymphoma = experiment: A-007 gel on the skin of a patient with lymphoma; assay type: in vivo, human; details: 0.25% gel (0.5 g)
[4] = test system: cervical early cancer-in-situ; experiment: A-007 gel in cervical cancer-in-situ (single patient); assay type: in vivo, human; details: 0.25% gel (2 g) daily for 5 days
Description: The responses are associated with increased organization of T-lymphocyte patterns and disappearance of cancer cells.

HPV = experiment: A-007 0.25% gel intravaginally, HPV response (titers); assay type: in vivo, Humans; design: key: NC: no change; details: per patient, intravaginal gel
[5] = test system: T-lymphocytes (CD markers); experiment: A-007 0.25% gel intravaginally, T-cell profile (tissue/blood); assay type: in vivo, Humans; design: key: NC: no change; details: per patient; intravaginal gel
[6] = test system: anal squamous cell cancer; experiment: A-007 0.25% gel intra-anally, cancer response and toxicity; assay type: in vivo, human; details: per patient
[7] = test system: T-lymphocytes (CD markers); experiment: A-007 0.25% gel intra-anally, T-cell profile (tissue/blood); assay type: in vivo, human; design: key: NC: no change; details: intra-anal gel
HeLa cancer cells (HPV+) = experiment: HeLa cancer cells incubated with A-007 crystals; assay type: cell-based; details: incubated with crystals for 24 hours
Description: Then through cell membrane chemical interphase and modulation of the PTP receptors the cells down regulate, darken with pyknotic changes associated with DNA agglutination resulting in death (lower clumped dark staining cells). The attraction that the crystals have for the cells is associated with intramolecular resonance and associated magnetic patterns described in FIGS. 3 and 4.

[8] = test system: benign fibroblasts or healthy epithelial cells; experiment: A-007 induced cell death in non-HPV cells; assay type: cell-based; details: cells not containing or transformed by HPV
lymphocytes in culture [9] = experiment: Lymphocyte blastogenesis, blasts per high powered field; assay type: cell-based; details: number of blasts per high powered field
Experimental: (§1) Once candidates have been selected as potential resonance modulators, they can be easily assayed to determine whether they induce lymphocyte blastogenesis and activate lymphocytes. Such an assay is found in Morgan et al., Anticancer Research 13:1763-1768 (1993), which is incorporated by reference. See also Janossy et al., Clin. Exp. Immunol. 14:581-596 (1973). Briefly, uptake of [^3]thymidine was measured for lymphocytes in culture. Lymphocytes were cultured in RPMI-1640 tissue culture medium supplemented with 10% fetal bovine serum (FBS). Following stimulation with the resonance modulator, tritiated thymidine (2-20 μCi/ml, specific activity 2 Ci/mmol) was added to the cells and incubated with them. The uptake of [^3]thymidine was stopped by the addition of cold 10% trichloroacetic acid after a selected period of time, and the radioactivity of the samples measured in a scintillation counter. The % lymphoblast was determined by counting the number of blasts per high powered field (hpf) while % activation was determined by uptake of the tritiated thymidine. The increase voltage was measured with an oscilloscope as in Example 7.

lymphocytes in culture [10] = experiment: Lymphocyte activation, tritiated thymidine uptake; assay type: cell-based; details: uptake of tritiated thymidine
Experimental: as §1

CD45+ receptor = CD45+ receptor modulation in lymphocytes and dendritic cells; assay type: cell-based, human
Description: CD45+ is expressed on dendritic cells, lymphocytes, monocytes, and leukocytes, as well as some neoplastic cells, as a protein tyrosine phosphatase (TP), which together with other members of the PTPs, are responsible for […] tyrosine residues. Blockade of the CD45+ receptor sites with anti-CD45 antibodies inhibits T-cell activation and prevents mitogen (lectin) activation of naïve T-cells. CD45+ receptor surfaces contain arginine, serine/threonine and cysteine moieties, which can bind to and/or transfer natural ligands to the surface of APCs, as well as hydrolyze tyrosyl phosphates. […] Different resonance states of A-007 are capable of interacting with different immune cells.

[11] = as seen by crystallography (Klein et al. 1993); cited from earlier work
[12] = test system: vaginal cancer / cervical cancer; experiment: A-007 0.25% gel intravaginally, cancer response and toxicity; details: per patient
[13] = Absorption and disposition of A-007 (blood detection, skin absorption, excretion)
[14] = test system: malignant squamous cell cancer (SCCA-HM); experiment: BDP-DNP on squamous cell cancer with T-lymphocytes in tissue culture; assay type: cell-based
Description: FIG. 15 describes the impact of BDP-DNP on cell growth for malignant squamous cell cancer (SCCA-HM) growing in culture (pre-post Rx). On the left are large lacey star shaped squamous 15 cancer cells associated with small white clumps of naïve T-lymphocytes. […] The dark background seen on the right is due to the color of the drug. All the fluffy white cells are large clumps of activated lymphocytes.

PTP CD45 receptor = biological target: T1, PTP CD45 receptor (Homo sapiens, UniProt P08575); experiment: Binding to and up-regulation of PTP CD45 receptor
T1 sequence (P08575 26-1306): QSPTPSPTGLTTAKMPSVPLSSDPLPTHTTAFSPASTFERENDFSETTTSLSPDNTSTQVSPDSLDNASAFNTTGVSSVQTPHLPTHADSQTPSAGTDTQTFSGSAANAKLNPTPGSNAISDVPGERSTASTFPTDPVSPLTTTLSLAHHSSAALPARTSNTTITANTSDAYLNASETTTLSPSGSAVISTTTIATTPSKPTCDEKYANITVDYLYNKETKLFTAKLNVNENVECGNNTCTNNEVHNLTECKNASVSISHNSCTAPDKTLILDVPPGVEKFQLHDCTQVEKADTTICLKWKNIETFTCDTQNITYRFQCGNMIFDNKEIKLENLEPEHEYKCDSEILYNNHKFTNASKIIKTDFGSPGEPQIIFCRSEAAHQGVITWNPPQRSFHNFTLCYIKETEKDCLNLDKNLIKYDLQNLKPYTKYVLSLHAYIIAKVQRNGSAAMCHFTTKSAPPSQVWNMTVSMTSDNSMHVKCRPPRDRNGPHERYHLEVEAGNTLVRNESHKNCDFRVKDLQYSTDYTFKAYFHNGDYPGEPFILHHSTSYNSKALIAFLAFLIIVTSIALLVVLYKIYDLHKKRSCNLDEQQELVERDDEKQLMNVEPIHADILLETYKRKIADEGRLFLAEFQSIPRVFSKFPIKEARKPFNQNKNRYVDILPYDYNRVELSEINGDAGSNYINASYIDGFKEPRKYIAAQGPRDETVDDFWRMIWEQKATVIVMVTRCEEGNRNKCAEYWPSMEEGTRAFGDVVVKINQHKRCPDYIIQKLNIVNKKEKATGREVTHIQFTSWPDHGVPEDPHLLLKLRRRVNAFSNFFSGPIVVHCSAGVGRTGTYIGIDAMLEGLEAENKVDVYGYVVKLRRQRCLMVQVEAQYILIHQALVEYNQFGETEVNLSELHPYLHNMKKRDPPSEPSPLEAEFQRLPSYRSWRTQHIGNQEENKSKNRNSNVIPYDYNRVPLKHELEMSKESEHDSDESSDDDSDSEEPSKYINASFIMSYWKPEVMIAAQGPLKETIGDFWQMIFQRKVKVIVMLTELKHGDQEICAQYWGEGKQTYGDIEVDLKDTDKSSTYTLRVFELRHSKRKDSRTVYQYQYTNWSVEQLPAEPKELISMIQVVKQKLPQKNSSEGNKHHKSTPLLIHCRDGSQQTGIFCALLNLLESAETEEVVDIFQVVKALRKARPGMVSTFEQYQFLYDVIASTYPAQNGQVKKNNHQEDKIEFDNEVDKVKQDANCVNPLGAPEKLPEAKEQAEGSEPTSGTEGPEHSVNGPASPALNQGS

[15] = 53 people treated with topical 0.25% gel
[16] = Breast, 0.25% gel topically twice daily
[17] = 0.4 mcg/mL, 24 hours incubation

O=[N+]([O-])c1ccc(NN=C(c2ccc(O)cc2)c2ccc(O)cc2)c([N+](=O)[O-])c1 [Compound A-007, 4,4′-dihydroxybenzophenone-2,4-dinitrophenylhydrazone]
complete responses (number) [1, 15]: ten | objective remissions [1, 15]: 37% | Duration ([1]; Angiosarcoma): 0 wks | Response: number NR ([1]; Angiosarcoma): 2 NR | Toxicities ([1]; Angiosarcoma): 0 | Duration ([1]; Anogenital): 1.8+ yrs | Response: number CR ([1]; Anogenital): 5 | Response: number PR ([1]; Anogenital): 2 | Toxicities ([1]; Anogenital): 0 | Toxicities (number, skin, mild) ([1]; Breast): 7 skin (mild) | Response: number CR [1, 16]: 5 | Response: number PR [1, 16]: 7 | Response: number stable [1, 16]: 6 stable | Duration ([1]; H/N (Sq. Cell)): 0 wks | Toxicities ([1]; H/N (Sq. Cell)): 0 | Duration ([1]; KS (Kaposi's sarcoma)): 11 wks | Response: number NR ([1]; KS (Kaposi's sarcoma)): 2 PR, 2 NR | Response: number PR ([1]; KS (Kaposi's sarcoma)): 2 PR, 2 NR | Toxicities ([1]; KS (Kaposi's sarcoma)): 0 | Duration ([1]; Melanoma): 3-15 wks | Response: number NR ([1]; Melanoma): 3 | Toxicities (number, skin, mild) ([1]; Melanoma): 2 Skin (mild) | Response: number PR ([1]; Melanoma, 0.25% gel topically twice daily): 1 | Duration ([1]; NHL): 3.5 yrs | Toxicities ([1]; NHL): 0 | Response: number PR ([1]; NHL (non-Hodgkins' lymphoma)): 1 PR | local or systemic toxicity ([1]; topical A-007): substantial absence of A-007 induced local or systemic toxicity | T-lymphocyte infiltrates (CD4+, CD3+, CD8+, CD45+) in treated skin ([2]; biopsies during topical treatment): increased infiltrates | CD11c+ dendritic cell infiltrates in treated skin ([2]; treated areas): Increased skin infiltrates | aggregation of lymphocytes around crystal [3]: lymphocytes and dendritic cells aggregate around the crystal or pellet | peripheral lymphocyte profile (total lymphocyte count) (lymphoma): improvement | duration of cure [4]: over one year | response of cervical carcinoma-in-situ (biopsy) [4]: disappearance of the cancer cells; also recorded: loss of malignant changes | HPV (Response), changes in HP titers (HPV): +(50%) | HPV (Response), changes in HP titers (HPV; CR as in Table 1): +(NC) | T-Cell Profile (Tissue/Blood) CD8/4+ [5]: NC | Response (Cancer) ([6]; gel intra-anally daily for five days): 0% (4×) and 100% | Toxicity ([6]; intra-anal gel): None | T-Cell Profile (Tissue/Blood) All others ([7]; patient A-3): NC | T-Cell Profile (Tissue/Blood) CD4/8 ([7]; patient A-5): NC | T-Cell Profile (Tissue/Blood) CD45+ ([7]; per patient): (NC) | effect on HeLa cancer cells (HeLa cancer cells (HPV+)): undergo necrobiosis and death; also recorded: undergo pyknosis (DNA agglutination and necrosis) and die | A-007 induced cell death [8]: not observed | % Lymphoblast (lymphocytes in culture [9]): 75% | % Activation (lymphocytes in culture [10]): 100% | inhibition of CD45+ (CD45+ receptor): does not inhibit or block CD45+ | CD45+ and CD11c+ receptors in human peripheral dendritic cells (CD45+ receptor; A-007-activated DCs): up-regulating both CD45+ and CD11c+ receptors | hydrogen bond donors [11]: greater than 5 | Response (Cancer) ([12]; 2 g gel intravaginally daily for five days): 75% and >75% | Toxicity ([12]; intravaginal gel): None | excretion ([13]; administered to a human subject): excreted substantially unchanged | absorption from/through the skin ([13]; applied to skin, animal and human studies): not absorbed from the skin; also recorded: substantially not absorbed through the skin | absorption into the blood ([13]; in vivo): not absorbed into the blood | detection of A-007 in blood ([13]; subjects treated with topical A-007): not been detected in the blood

O=C1c2ccccc2C(=NNc2ccc([N+](=O)[O-])cc2[N+](=O)[O-])c2ccc(O)c(O)c21 [DNPA, 10-[(2,4-dinitrophenyl)hydrazono]-1,2-dihydroxy-10H-anthracen-9-one]
% Lymphoblast (lymphocytes in culture [9]): 50% | % Activation (lymphocytes in culture [10]): 75%

CC(C)C(=O)Nc1ccc([N+](=O)[O-])c(C(F)(F)F)c1 [Fludamide, reference compound]
% Lymphoblast (lymphocytes in culture [9]): 0% | % Activation (lymphocytes in culture [10]): 0%

O=[N+]([O-])c1ccc(NN=C2C(=Cc3ccccc3)CCCC2=Cc2ccccc2)c([N+](=O)[O-])c1 [Compound 38, 2,6-Dibenzylidenecyclohexanone-2,4-dinitrophenylhydrazone]
cancer cells after treatment [14, 17]: No cancer cells are detected | effect on naïve T-lymphocytes in the culture [14, 17]: impressive stimulation | immune modulating anticancer activities vs. A-007 ([14]; relative to A-007): 100 fold | binding affinities to PTP CD45 receptor (PTP CD45 receptor): improved binding affinities | effect on PTP CD45 receptor (PTP CD45 receptor): upregulates the receptor | binding affinities to PTP CD45 receptor (PTP CD45 receptor; listed as structure 38): excellent binding affinities | % Lymphoblast (lymphocytes in culture [9]): 100% | % Activation (lymphocytes in culture [10]): 100%

From patent US20070049514A1, “Resonance modulator for diagnosis and therapy” (priority 2003, published 2007)
